Assay results published in patent publication US12577248B2, “Substituted [1,2,4]triazolo[1,5-a]pyrazines as spleen tyrosine kinase inhibitors” (NANJING RUIJIE PHARMA CO., LTD., priority 2020, dated 2026).

Biological target: SYK kinase (Homo sapiens, UniProt P43405)
Assay: SYK kinase assay (HTRF KinEASE-TK)
Type: biochemical
Settings: class symbols, read-out: Syk inhibition IC50
Description: A homogeneous time-resolved fluorescence (HTRF) assay was performed to assess the potential inhibitory effect of compounds on SYK kinase. The HTRF KinEASE-TK kit (Cisbio) was used. During the step, kinase will phosphorylate the substrate, and the resulting fluorescence signal is proportional to the phosphorylation level. The assay was performed in the following steps: First, the testing compounds were diluted 1:3 in succession in DMSO. The 1× kinase buffer contained 1 volume of 5× enzymatic buffer with 4 volumes of distilled water, 5 mM MgCl2, 1 mM MnCl2, and 1 mM DTT. The assays were assembled in 384 well plates (784075, Greiner) where 10 nl of compound solutions were added into each well, and the plates were centrifuged at 1000 g for 1 min. Then, 5 μl of 2×SYK in 1× kinase buffer were added to each well. The plates were centrifuged at 1000 g for 30 s and then incubated at room temperature for 10 min. The reaction was initiated by adding […] of premixed 2×TK-substrate-biotin and ATP mixture in 1× kinase buffer to the assay plates. The plates were centrifuged at 1000 g for 30 s and incubated at room temperature for 30 min. Phosphorylation was detected by adding 5 μl of 4×Sa-XL 665 in HTRF detection buffer into each well of the assay plates. The plates were centrifuged plates at 1000 g for 30 sec, and then incubated at room temperature for 1 h. Finally, the plates were read on an Envision 2104 plate reader (PerkinElmer) and the fluorescence signal was measured at 615 nm (Cryptate) and 665 nm (XL665).
A ratio (665/615 nm) was calculated for each well. The inhibition ratio was calculated as follow: […]
IC50 was calculated by fitting % Inhibition values and log of compound concentrations to nonlinear regression (dose response−variable slope) with GraphPad 6.0.

SMILES | IC50
O=C1COc2cc(-c3cn4ncnc4c(Nc4ccc(N5CCOCC5)cc4)n3)cnc2N1 [I31, 7-(8-((4-morpholinophenyl)amino)-[1,2,4]triazolo[1,5-a]pyrazin-6-yl)-2H-pyrido[3,2-b][1,4]oxazin-3(4H)-one] | 50 to 500 nM
COc1cc(Nc2nc(-c3cnc4c(c3)OC(C)(C)C(=O)N4)cn3ncnc23)ccc1N1CCOCC1 [I32, 7-(8-((3-methoxy-4-morpholinophenyl)amino)-[1,2,4]triazolo[1,5-a]pyrazin-6-yl)-2,2-dimethyl-2H-pyrido[3,2-b][1,4]oxazin-3(4H)-one] | 50 to 500 nM
CC1(C)Oc2cc(-c3cn4ncnc4c(Nc4ccc(N5CCOCC5)cc4)n3)cnc2NC1=O [I33, 2,2-dimethyl-7-(8-((4-morpholinophenyl)amino)-[1,2,4]triazolo[1,5-a]pyrazin-6-yl)-2H-pyrido[3,2-b][1,4]oxazin-3(4H)-one] | 50 to 500 nM
COc1cc(Nc2nc(-c3cnc4c(c3)OCC(=O)N4)cn3ncnc23)cc(OC)c1OC [I34, 7-(8-((3,4,5-trimethoxyphenyl)amino)-[1,2,4]triazolo[1,5-a]pyrazin-6-yl)-2H-pyrido[3,2-b][1,4]oxazin-3(4H)-one] | > 5000 nM
COc1cc(Nc2nc(-c3cnc4c(c3)OC(C)(C)C(=O)N4)cn3ncnc23)cc(OC)c1OC [I35, 2,2-dimethyl-7-(8-((3,4,5-trimethoxyphenyl)amino)-[1,2,4]triazolo[1,5-a]pyrazin-6-yl)-2H-pyrido[3,2-b][1,4]oxazin-3(4H)-one] | > 5000 nM
COc1ccc(Nc2nc(-c3cnc4c(c3)OCC(=O)N4)cn3ncnc23)cc1OC [I36, 7-(8-((3,4-dimethoxyphenyl)amino)-[1,2,4]triazolo[1,5-a]pyrazin-6-yl)-2H-pyrido[3,2-b][1,4]oxazin-3(4H)-one] | 50 to 500 nM
COc1ccc(Nc2nc(-c3cnc4c(c3)OC(C)(C)C(=O)N4)cn3ncnc23)cc1OC [I37, 7-(8-((3,4-dimethoxyphenyl)amino)-[1,2,4]triazolo[1,5-a]pyrazin-6-yl)-2,2-dimethyl-2H-pyrido[3,2-b][1,4]oxazin-3(4H)-one] | 50 to 500 nM
O=C1COc2cc(-c3cn4ncnc4c(Nc4ccc5c(c4)OC(F)(F)O5)n3)cnc2N1 [I38, 7-(8-((2,2-difluorobenzo[d][1,3]dioxol-5-yl)amino)-[1,2,4]triazolo[1,5-a]pyrazin-6-yl)-2H-pyrido[3,2-b][1,4]oxazin-3(4H)-one] | > 5000 nM
CC1(C)Oc2cc(-c3cn4ncnc4c(Nc4ccc5c(c4)OC(F)(F)O5)n3)cnc2NC1=O [I39, 7-(8-((2,2-difluorobenzo[d][1,3]dioxol-5-yl)amino)-[1,2,4]triazolo[1,5-a]pyrazin-6-yl)-2,2-dimethyl-2H-pyrido[3,2-b][1,4]oxazin-3(4H)-one] | > 5000 nM
Fc1cc(Nc2nc(-c3ccc4cn[nH]c4c3)cn3cnnc23)ccc1N1CCOCC1 [I40, N-(3-fluoro-4-morpholinophenyl)-6-(1H-indazol-6-yl)-[1,2,4]triazolo[4,3-a]pyrazin-8-amine] | > 5000 nM
Clc1cc(Nc2nc(-c3ccc4cn[nH]c4c3)cn3cnnc23)ccc1N1CCOCC1 [I41, N-(3-chloro-4-morpholinophenyl)-6-(1H-indazol-6-yl)-[1,2,4]triazolo[4,3-a]pyrazin-8-amine] | > 5000 nM
Cc1cc(Nc2nc(-c3ccc4cn[nH]c4c3)cn3cnnc23)ccc1N1CCOCC1 [I42, 6-(1H-indazol-6-yl)-N-(3-methyl-4-morpholinophenyl)-[1,2,4]triazolo[4,3-a]pyrazin-8-amine] | > 5000 nM
c1cc(N2CCOCC2)ncc1Nc1nc(-c2ccc3cn[nH]c3c2)cn2cnnc12 [I43, 6-(1H-indazol-6-yl)-N-(6-morpholinopyridin-3-yl)-[1,2,4]triazolo[4,3-a]pyrazin-8-amine] | > 5000 nM
COc1cc(Nc2nc(-c3ccc4c(F)n[nH]c4c3)cn3cnnc23)ccc1N1CCOCC1 [I44, 6-(3-fluoro-1H-indazol-6-yl)-N-(3-methoxy-4-morpholinophenyl)-[1,2,4]triazolo[4,3-a]pyrazin-8-amine] | > 5000 nM

Further lines, results first:

IC50 | SMILES
50 to 500 nM | COc1cc(Nc2nc(-c3ccc4cn[nH]c4c3)cn3ncnc23)cc(OC)c1OC [I4, 6-(1H-indazol-6-yl)-N-(3,4,5-trimethoxyphenyl)-[1,2,4]triazolo[1,5-a]pyrazin-8-amine]
50 to 500 nM | NC(=O)c1ccc(-c2cn3ncnc3c(Nc3ccc(N4CCOCC4)cc3)n2)cc1 [I5, 4-(8-((4-morpholinophenyl)amino)-[1,2,4]triazolo[1,5-a]pyrazin-6-yl)benzamide]
50 to 500 nM | NC(=O)c1cccc(-c2cn3ncnc3c(Nc3ccc(N4CCOCC4)cc3)n2)c1 [I6, 3-(8-((4-morpholinophenyl)amino)-[1,2,4]triazolo[1,5-a]pyrazin-6-yl)benzamide]
≤ 50 nM | COc1cc(Nc2nc(-c3ccc4cn[nH]c4c3)cn3ncnc23)ccc1N1CCN(CC(F)(F)F)CC1 [I8, 6-(1H-indazol-6-yl)-N-(3-methoxy-4-(4-(2,2,2-trifluoroethyl)piperazin-1-yl)phenyl)-[1,2,4]triazolo[1,5-a]pyrazin-8-amine]
≤ 50 nM | CN1CCN(c2ccc(Nc3nc(-c4ccc5cn[nH]c5c4)cn4ncnc34)cc2)CC1 [I11, 6-(1H-indazol-6-yl)-N-(4-(4-methylpiperazin-1-yl)phenyl)-[1,2,4]triazolo[1,5-a]pyrazin-8-amine]
≤ 50 nM | CCS(=O)(=O)N1CCN(c2ccc(Nc3nc(-c4ccc5cn[nH]c5c4)cn4ncnc34)cc2OC)CC1 [I13, N-(4-(4-(ethylsulfonyl)piperazin-1-yl)-3-methoxyphenyl)-6-(1H-indazol-6-yl)-[1,2,4]triazolo[1,5-a]pyrazin-8-amine]
≤ 50 nM | CCS(=O)(=O)N1CCN(c2ccc(Nc3nc(-c4ccc5cn[nH]c5c4)cn4ncnc34)cc2)CC1 [I14, N-(4-(4-(ethylsulfonyl)piperazin-1-yl)phenyl)-6-(1H-indazol-6-yl)-[1,2,4]triazolo[1,5-a]pyrazin-8-amine]
≤ 50 nM | COc1cc(Nc2nc(-c3ccc4cn[nH]c4c3)cn3ncnc23)ccc1N1CCN(CCO)CC1 [I15, 2-(4-(4-((6-(1H-indazol-6-yl)-[1,2,4]triazolo[1,5-a]pyrazin-8-yl)amino)-2-methoxyphenyl)piperazin-1-yl)ethan-1-ol]
≤ 50 nM | COc1cc(Nc2nc(-c3ccc4cn[nH]c4c3)cn3ncnc23)ccc1N1CCN(C2CC2)CC1 [I19, N-(4-(4-cyclopropylpiperazin-1-yl)-3-methoxyphenyl)-6-(1H-indazol-6-yl)-[1,2,4]triazolo[1,5-a]pyrazin-8-amine]
50 to 500 nM | FC(F)(F)Oc1cc(Nc2nc(-c3ccc4cn[nH]c4c3)cn3ncnc23)ccc1N1CCOCC1 [I20, 6-(1H-indazol-6-yl)-N-(4-morpholino-3-(trifluoromethoxy)phenyl)-[1,2,4]triazolo[1,5-a]pyrazin-8-amine]
50 to 500 nM | CC1(C)Oc2cc(-c3cn4ncnc4c(Nc4ccc(N5CCOCC5)cc4)n3)ccc2NC1=O [I27, 2,2-dimethyl-7-(8-((4-morpholinophenyl)amino)-[1,2,4]triazolo[1,5-a]pyrazin-6-yl)-2H-benzo[b][1,4]oxazin-3(4H)-one]
50 to 500 nM | COc1cc(Nc2nc(-c3cnc4c(c3)OCC(=O)N4)cn3ncnc23)ccc1N1CCOCC1 [I30, 7-(8-((3-methoxy-4-morpholinophenyl)amino)-[1,2,4]triazolo[1,5-a]pyrazin-6-yl)-2H-pyrido[3,2-b][1,4]oxazin-3(4H)-one]
